Laboratory results: patent US11123351B2, “Pharmaceutical formulation of 3-alpha-ethynyl-3-beta-hydroxyandrostan-17-one oxime” (priority 2017, dated 2021)
Converted amounts (≈) assume the structure as drawn.

Experiments:
[1] = Serum allopregnanolone exposure in the antagonist study; type: in vivo, human
Procedure: (§1) The antagonist study, with the purpose of evaluating the biological activity of the IND compound, (EudraCT 2015-004911-19) was randomized and placebo-controlled with a double-blind three-part cross-over design. Study subjects orally received: placebo (A); 3 mg of IND formulation (B); or 30 mg of IND formulation (C); followed 90 minutes later by an intravenous (i.v.) allopregnanolone injection (0.05 mg/kg) and repeated measurements of maximal saccadic eye velocity (SEV) (Saccadometer Plus, Ober Consulting Sp. z o.o, Poland) and sedation/somnolence (visual analogue scale graded from “Absence of sleepiness” to “Falling asleep) for three hours.
(§2) The IND compound and allopregnanolone were quantified by UPLC/MS/MS Waters Acquity, C18 column, and Waters XEVO-TQ-S triple quadrupole mass spectrometer. As internal standards D4-[3α-ethynyl-3β-hydroxyandrostan-17-one oxime] and D5-allopregnanolone were used, respectively. For analysis of allopregnanolone oxime-derivatization was used to increase sensitivity. Standard- and QC-samples were prepared into human blank plasma/serum. The detection limit for 3α-ethynyl-3β-hydroxyandrostan-17-one oxime was 1 ng/mL, and for allopregnanolone 0.05 ng/ml (0.15 nmol/L).

GABA-A receptor [2] = experiment: Antagonist study: allopregnanolone-induced sedation (visual analogue scale); type: in vivo, human; details: responding subjects, VAS scores
Procedure: as §1

GABA-A receptor [3] = experiment: Antagonist study: allopregnanolone-induced decrease in maximal saccadic eye velocity (SEV); type: in vivo, human; details: responding subjects, responsive period
Procedure: as §1

[4] = Solubility of Compound I in different vehicles (visual inspection); type: physicochemical
Procedure: The sample was heated, if required to melt the vehicle, to approx. from 15° C.-80° C. and agitated by vortex or stirrer.
Addition was continued until a clear solution was not longer obtained after mixing.
Glycerol monooleate [Cithrol GMO from Croda Health Care] was melted at 50° C. […] The sample was heated and agitated by vortex.
(0.91 g). The sample was heated to approx. 40° C. and agitated by vortex.
The sample was agitated by vortex at room temperature.
The material was stirred at least 30 minutes between each addition.
Upon completed dissolution the temperature was decreased to 30° C. and the solution was filled in hard gelatin capsules of size 0. The target fill weight was 500 mg where after the capsules were capped and kept at −20° C. for 2-3 hours before storage in refrigerator.

[5] = Solubility of 3α-ethynyl-3β-hydroxyandrostan-17-one oxime in aqueous media; type: physicochemical
[6] = Clinical Phase I 5 day multiple ascending dose (MAD) study, pharmacokinetics and safety; type: in vivo, human; details: for AUC increase / CMax increase: multiple dose
Description: (§3) In total 90 eligible healthy consenting male subjects (age 18-50 years) were included in the study. The oral formulation used was a capsule containing a lipid solution of 3α-ethynyl-3β-hydroxyandrostan-17-one oxime formulated according to Example 10 above (IND formulation in the following).
(§4) The first in human single ascending dose (SAD) study (EudraCT 2015-004911-19) and the 5 day multiple ascending dose (MAD) study (EudraCT 2016-003651-30) were prospective, randomized, double-blinded and placebo-controlled and designed to assess the safety, tolerability and pharmacokinetic (PK) characteristics of single and multiple ascending oral doses of 3α-ethynyl-3β-hydroxyandrostan-17-one oxime (IND compound) in healthy male volunteers.
MAD: 50 mg once daily; 50 mg twice daily (BID), i.e. 100 mg/day; or 100 mg twice daily (BID), i.e. 200 mg/day.
as §2
(§5) Pharmacokinetic parameters were evaluated using Non-Compartmental Analysis and the software Phoenix WinNonlin® version 6.3 or later (Pharsight Corporation, U.S.A.). Dose proportionality was for the SAD study based on AUC0->∞ and Cmax, and in the MAD study on steady-state AUCτ. The accumulation ratio between the first and last dose was calculated as (steady-state AUCτ/first dose AUC0->∞). Statistical calculations were with IBM SPSS statistics (Version 24, IBM).

[7] = Clinical Phase I single ascending dose (SAD) study, pharmacokinetics and safety; type: in vivo, human
Description: as §3, §4, §2, §5

[8] = allopregnanolone 0.05 mg/kg i.v. + placebo
[9] = allopregnanolone + Compound I 3 mg oral
[10] = allopregnanolone + Compound I 30 mg oral
[11] = day 1, 100 mg BID versus next lower dose
[12] = steady-state, day 5, 100 mg BID versus next lower dose
[13] = single dose 3 mg versus next lower dose
[14] = single dose 10 mg versus next lower dose
[15] = single dose 30 mg versus next lower dose
[16] = single dose 100 mg versus next lower dose
[17] = single dose 200 mg versus next lower dose

For `CC(=O)[C@H]1CC[C@H]2[C@@H]3CC[C@H]4C[C@H](O)CC[C@]4(C)[C@H]3CC[C@]12C` [Allopregnanolone, allopregnanolone, reference compound], the Highest serum level ([1]; first study time point after i.v. injection 0.05 mg/kg, three study occasions) was 74 to 82 nM, the concentration at 10 min ([1]; human, serum, intravenous, 0.05 mg/kg, 10 min after injection, average) was ~80 nM and the “AUC (ΔSedation)” value (GABA-A receptor [2]; [8]) was 1928 ± 404 mm × min. The “AUC (ΔSEV)” value (GABA-A receptor [3]; [8]) was −3018 ± 656 deg/s × min.

With `C#C[C@]1(O)CC[C@@]2(C)C(CC[C@@H]3[C@@H]2CC[C@]2(C)/C(=N/O)CC[C@@H]32)C1` (stereo partly drawn) [Compound I, 3α-ethynyl-3β-hydroxyandrostan-17-one oxime] the “AUC (ΔSedation)” value (GABA-A receptor [2]; [9]) was 698 ± 332 mm × min, the “AUC (ΔSedation)” value (GABA-A receptor [2]; [10]) was 416 ± 469 mm × min and the “Concentration that could be dissolved” value ([4]; Capric/caprylic glyceride Imwitor 742, heating temperature 60° C.) was 20000 µg/mL. For the same compound, the “Concentration that could be dissolved” value ([4]; Capric/caprylic glyceride Imwitor 742, heating temperature 70° C.) was 40000 µg/mL, the Solubility ([4]; Example 1, Capric/caprylic glycerides, Imwitor 742, 40° C.) was 20 to 30 mg/g and the Solubility ([4]; Example 2, Glyceryl monooleate, Cithrol GMO, melted at 50° C.) was 8 mg/g. The Solubility ([4]; Example 3, Oleoyl macrogol-6 glycerides, Labrafil M1944 CS, approx. 40° C.) was 5 mg/g, the Solubility ([4]; Example 5, Propylenglycol monocaprylate type I, Capryol PGMC, room temperature) was 15 mg/g and the Solubility ([4]; Example 6, Propylenglycol monocaprylate type II, Capryol 90, room temperature) was 23 mg/g. The Solubility ([4]; Example 7, Polyoxyethylene-8 caprylic/capric glycerides, Acconon MC8-2, room temperature) was 2 mg/g, the Solubility ([4]; propylene glycol monolaurate type I (Lauroglycol FCC), oil or lipid, thermodynamic from solid, Example 4, Propylenglycol monolaurate type I, Lauroglycol FCC, room temperature, read-out: Solubility) was 6000 µg/mL (≈ 18200 µM) and the “AUC (ΔSEV)” value (GABA-A receptor [3]; [9]) was −1592 ± 924 deg/s × min. For the same compound, the “AUC (ΔSEV)” value (GABA-A receptor [3]; [10]) was −909 ± 798 deg/s × min, the Solubility ([5]; FaSSIF (fasted-state simulated intestinal fluid), fassif) was 7 µg/mL (≈ 21.2 µM) and the Solubility ([5]; FeSSIF (fed-state simulated intestinal fluid), fessif) was 19 µg/mL (≈ 57.7 µM). For the same compound, the Solubility ([5]; SGF (simulated gastric fluid), simulated gastric fluid) was 0.2 µg/mL (≈ 0.607 µM), the Solubility ([5]; water) was 1.5 µg/mL (≈ 4.55 µM) and the “Serious adverse events (SAEs) and dose-limiting toxicity” value ([6]; healthy adult males, up to 100 mg every 12 hours for 5 days) was “neither serious adverse events (SAEs) nor dose-limiting toxicity was observed”. For the same compound, the “Increase in AUC0->∞ when the dose was doubled” value ([6]; human, in vivo) was 1.9 times, the AUC increase [6, 11] was 1.9 fold and the CMax increase [6, 11] was 1.4 fold. For the same compound, the AUC increase [6, 12] was 1.9 fold, the CMax increase [6, 12] was 1.6 fold and the “Serious adverse events (SAEs) and dose-limiting toxicity” value ([7]; healthy adult males, single dose up to 200 mg) was “neither serious adverse events (SAEs) nor dose-limiting toxicity was observed”. The “Dose proportionality constant β for AUC0-∞” value ([7]; human, in vivo, po, 200 mg) was 1.12, the “Dose proportionality constant β for CMax” value ([7]; human, in vivo, po, 200 mg) was 1.01 and the AUC(0-inf) ([7]; male, human, in vivo, 1 mg) was 67 ng·h/mL. The Cmax ([7]; male, human, in vivo, 1 mg) was 0.013 µg/mL, the AUC(0-inf) ([7]; male, human, in vivo, 3 mg) was 215 ng·h/mL and the Cmax ([7]; male, human, in vivo, 3 mg) was 0.044 µg/mL. It also gave an AUC(0-inf) ([7]; male, human, in vivo, 10 mg) of 785 ng·h/mL, a Cmax ([7]; male, human, in vivo, 10 mg) of 0.149 µg/mL and an AUC(0-inf) ([7]; male, human, in vivo, 30 mg) of 2560 ng·h/mL. It also gave a Cmax ([7]; male, human, in vivo, 30 mg) of 0.464 µg/mL, an AUC(0-inf) ([7]; male, human, in vivo, 100 mg) of 11900 ng·h/mL and a Cmax ([7]; male, human, in vivo, 100 mg) of 1.53 µg/mL. The AUC(0-inf) ([7]; male, human, in vivo, 200 mg) was 25800 ng·h/mL, the Cmax ([7]; male, human, in vivo, 200 mg) was 2.77 µg/mL and the Tmax ([7]; male, human, in vivo, po) was 1 to 2 h. It also gave an AUC increase [7, 13] of 3.2 fold, a CMax increase [7, 13] of 3.4 fold and an AUC increase [7, 14] of 3.7 fold. It also gave a CMax increase [7, 14] of 3.4 fold, an AUC increase [7, 15] of 3.3 fold and a CMax increase [7, 15] of 3.1 fold. The AUC increase [7, 16] was 4.6 fold, the CMax increase [7, 16] was 3.3 fold and the AUC increase [7, 17] was 2.2 fold. For the same compound, the CMax increase [7, 17] was 1.8 fold.
